Laboratory results published in patent US11045485B2, “Glycomimetic inhibitors of PA-IL and PA-IIL lectins” (GlycoMimetics, Inc., priority 2016, dated 2021).
“And” between values parts separate entries of the source, which are not always exact repeats. Equal entries are not always repeated.

What was measured:
[1] = system: Pseudomonas aeruginosa PAO1 strain; test: Acute P. aeruginosa-induced infection in mouse, association with tobramycin; type: in vivo, male C57BL6/J mice
Method: (§1) Pseudomonas aeruginosa PAO1 strain is a sequenced, well-characterized strain used as reference strain. Bacteria were grown overnight at 37° C. in Lysogeny Broth Lennox (LB) (BD Europe, Le pont de Claix, France) under orbital shaking (300 rpm) from frozen stock. A secondary culture was performed during 2 hours and before harvesting the bacteria by centrifugation (2000 g, 5 min), and two washings with sterile phosphate-buffered saline (PBS). Turbidity was then approximated by measurement of optical density at A600 (Ultrospec 10 Cell Density Meter, General Electric, Fairfield, Conn.) and verified by serial dilution and plating on LB agar Plates.
(§2) Vehicle was phosphate buffered saline, and test solutions are Glycomimetic Compound (I) 40 mM in PBS, and Compound A 40 mM in PBS. Test articles were provided by GlycoMimetics and stored at −20° C. Tobramycin (1 g) was provided by Laboratoire EREMPHARMA (25 rue Greffulhe—92300 Levallois) and stored at (+4° C.).
(§3) Male C57BL6/J mice (8 weeks old) purchased from Janvier Labs (Route du Genest, 53940 Le Genest-Saint-Isle) were housed a pathogen-free unit of the Lille University Animal Care Facility and allowed food and water ad lib.
(§4) Mice were anesthetized briefly with inhaled sevoflurane (Sevorane™, Abbott, Queensborough, UK), allowing maintenance of spontaneous breathing after which 50 μL of the bacterial solution were administered intranasally representing a total of 1.10^6 CFU/mouse (except for tobramycin study conducted with lethal inoculate of […]). Control mice receive 50 μL of PBS. All mice were sacrificed at 24 h (except for survival studies, mice were monitored on weight and clinical score 96 h post bacterial infection). Glycomimetic Compound (I) or Compound A were administered IN with the inoculum or post-infection (see FIG. 8 and FIG. 12). In appropriate groups, mice were treated 24 h after infection with 12 mg/kg tobramycin administered intraperitoneally.
(§5) For each group, treatment effect was measured with the disease score and daily mortality rate post challenge. The evolution of the disease score assessing the clinical appearance of the animals was evaluated on 4 items scored from 0 to 10 summarized in Table 1 (body temperature, appearance of the bristle, behavior and weight loss; 0: healthy mice, 10 moribund mice). All disease score assessments were performed by two experimenters throughout the study.
(§6) Statistical analysis was performed using Prism 5 software (Graph-Pad Software, San Diego Calif.). Values are expressed as mean±SEM. Comparison groups were analysed with the nonparametric Mann-Whitney test. Survival curves were analysed using Log-rank (Mantel-Cox) test. *p<0.05; ** p<0.01; *** p<0.001 Results are mean+/−Standard error.
Mice, 8 weeks old C57Bl/6J male, received intranasally 2.10^7 CFU of PAO1 and Glycomimetic Compound (I) or Compound A at different time points with or without an intraperitoneal injection of tobramycin 12 mg/kg (FIG. 12).

[2] = system: Pseudomonas aeruginosa PAO1 strain; test: Acute P. aeruginosa-induced infection in mouse, monotherapy at different inoculation times; type: in vivo, male C57BL6/J mice
Method: as §1, §2, §3, §4, §5, §6
Mice, 8 weeks old C57Bl/6J male, received intranasally 1.10^7 CFU of PaO1 and Glycomimetic Compound (I) or Compound A at different time points, as described in FIG. 8.
We analyzed weight loss, clinical disease score and mortality. Fourteen independent cohorts of 5 mice each were tested. Each cohort included an equal representation of testing conditions. All stage 1 cohorts were tested over 4 days. At the conclusion of Stage 1, there was a total of 10 mice for each of the above 7 treatment groups.

[3] = system: Pseudomonas aeruginosa strain PaO; test: Acute lung injury model, compound co-administered with bacteria; type: in vivo, male BalB/c mice
Method: Cohorts of male BalB/c mice (n=5/group) were infected intranasally with either a low (1-2×10^6 CFU) or a high (1-2×10^7 CFU) inoculum of Pseudomonas aeruginosa strain PaO, in combination with saline or multiple dose levels ([…], corresponding to 10, 25 and 50 mg/kg, respectively) of glycomimetic compound (I) or compound A. The bacteria were coadministered with glycomimetic compound (I) or compound A directly into the lungs of each mouse by intratracheal (i.t.) injection via the oropharynx using a 24-gauge feeding needle (total volume of 0.05 mL).
The animals were observed daily beginning 24 hours post infection and cumulative clinical (disease) scores were determined for each mouse (FIGS. 4 and 6). Parameters assessed were: (a) for appearance (smooth→bristly); (b) body temperature (normal→cold); (c) movement (moving→prostate); and (d) weight loss. Clinical scoring ranged from 0 (normal, uninfected appearance) to 10 (severely compromised).
Animals were observed daily for morbidity/mortality and day of death recorded. Kaplan-Meier analysis was used to estimate survival function from life-span data and statistical values derived from a log rank test.

PA-IL = biological target: T1, PA-IL (Pseudomonas aeruginosa, UniProt Q05097); test: Assay for PA-IL antagonist activity (competition with α-galactose-PAA-biotin/streptavidin-HRP on coated plate); type: binding
T1 construct: purchased Sigma-Aldrich, St. Louis, Mo
T1 sequence (Q05097 whole entry): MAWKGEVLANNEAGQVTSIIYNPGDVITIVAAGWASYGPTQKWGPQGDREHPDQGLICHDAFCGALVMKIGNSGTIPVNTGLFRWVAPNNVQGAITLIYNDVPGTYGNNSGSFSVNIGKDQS
Method: (§7) Wells of a microtiter plate (plate 1) are coated with PA-IL (Sigma-Aldrich, St. Louis, Mo.) by incubation for 2 hrs at 37° C. The wells are then blocked for 2 hrs by the addition of 1% bovine serum albumin (BSA) diluted in TBS-Ca (50 mM TrisHCl, 150 mM NaCl, 2 mM CaCl2) pH 7.4) mixed 1:1 v/v with Stabilcoat (Surmodics, Eden Prairie, Minn.). In a second low-binding round-bottom microtiter plate (plate 2), test antagonists are serial diluted in 1% BSA in TBS-Ca/Stabilcoat (60 μl/well). Preformed conjugates of α-galactose-PAA-biotin (GlycoTech Corp, Gaithersburg, Md.) mixed with streptavidin-HRP (KPL Labs, Gaithersburg, Md.) are added to each well of plate 2 (60 μl/well of 2 μg/ml). Plate 1 is then washed with TBS-Ca and 100 μl/well are transferred from plate 2 to plate 1. After incubation at room temperature for 2 hrs, plate 1 is washed and 100 μl of TMB reagent (KPL Labs, Gaithersburg, Md.) is added to each well. After incubation for 5 minutes at room temperature, the reaction is stopped by adding 100 μl/well of 1M H3PO4 and the absorbance of light at 450 nm is determined by a microtiter plate reader. Absorbance is plotted as a function of antagonist concentration and the concentration at which 50% maximal absorbance (IC50) is obtained is determined from the plot.

[4] = Uninfected mice treated with compound (non-specific toxicity control); type: in vivo; details: 40 mM
PA-IIL = biological target: T2, PA-IIL (Pseudomonas aeruginosa, UniProt Q9HYN5); test: Assay for PA-IIL antagonist activity (competition with fucose-PAA-biotin/streptavidin-HRP on coated plate); type: binding
T2 construct: Dr. Wimmerova, Masaryk University, Brno, Czech Republic (academic supplier)
T2 sequence (Q9HYN5 entry or part of it): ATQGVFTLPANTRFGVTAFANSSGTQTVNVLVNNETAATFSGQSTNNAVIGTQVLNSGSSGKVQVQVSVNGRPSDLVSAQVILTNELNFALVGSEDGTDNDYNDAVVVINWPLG
Method: as §7, with “PA-IIL (Dr. Wimmerova, Masaryk University, Brno, Czech Republic)” for “PA-IL (Sigma-Aldrich, St. Louis, Mo.)”, “CaCl2” for “CaCl2)”, “fucose-PAA-biotin” for “α-galactose-PAA-biotin”

Pseudomonas aeruginosa = test: Acute lung injury model, treatment with tobramycin; type: in vivo, mice
Method: Mice were co-administered 2×10^7 CFU Pseudomonas aeruginosa with or without compound A or glycomimetic compound (I) in combination with 12 mg/kg tobramycin. The tobramycin was administered intraperitoneally 6 hours after bacterial challenge.

[5] = 2.10^7 CFU PAO1, agent alone, H4 administration

Structure (SMILES) | survival [1, 5] | survival ([1]; 2.10^7 CFU PAO1, agent alone, at 6 h) | survival ([2]; 1.10^7 CFU PaO1, compound administered after 4 hours of infection) | survival ([2]; 1.10^7 CFU PaO1, compound administered after 6 hours of infection) | survival ([2]; 1.10^7 CFU PaO1, compound administered after one hour of infection) | survival ([2]; 1.10^7 CFU PaO1, compound administered with the bacteria) | effect on weight and score disease ([2]; monotherapy, FIGS. 10 and 11) | survival ([3]; high inoculum, co-administered 20 mM, at 96 hr) | survival ([3]; high inoculum, co-administered 40 mM, at 96 hr) | survival ([3]; low inoculum 2×10^6 CFU, co-administered 40 mM compound, i.t.) | survival ([1]; 2.10^7 CFU PAO1, association with tobramycin 12 mg/kg i.p., H4 administration) | survival ([1]; 2.10^7 CFU PAO1, association with tobramycin 12 mg/kg i.p., at 6 h) | score disease ([1]; with tobramycin, at 4 hours) | IC50 (PA-IL) | morbidity or mortality [4] | IC50 (PA-IIL) | survival (Pseudomonas aeruginosa; 8 mM in combination with 12 mg/kg tobramycin) | survival (Pseudomonas aeruginosa; 20 mM in combination with 12 mg/kg tobramycin) | survival (Pseudomonas aeruginosa; 40 mM in combination with 12 mg/kg tobramycin) | survival benefit (Pseudomonas aeruginosa; 8, 20 and 40 mM co-administered with bacteria, plus 12 mg/kg tobramycin i.p. 6 hours after challenge)
NC[C@H]1O[C@H](O[C@H]2[C@H](O)[C@@H](O[C@H]3O[C@H](CO)[C@@H](O)[C@H](N)[C@H]3O)[C@H](N)C[C@@H]2N)[C@H](N)C[C@@H]1O [tobramycin, reference compound] | 70% | 10% | – | – | – | – | – | – | – | – | – | – | – | – | – | – | – | – | – | –
CC1CCC[C@@H](O[C@@H]2OC(CO)[C@H](O)C(O[C@H]3OC(CO)[C@H](O)C(O)C3O)C2O)C1OC1O[C@@H](C)C(O)C(O)[C@@H]1O (stereo partly drawn) [Glycomimetic Compound (I)] | 30% | – | 40% | 25% and 20% | 54.5% | 90% | superior to Compound A | 60% | 100% | 100% | 90% | 50% | lower score | 7.2 µM | no morbidity or mortality was observed | 0.44 µM | 40% | 100% | 100% | significantly increased
